Measurements from US20230000888A1, “NAD-PRECURSORS AND DIETARY RESTRICTION FOR TREATING AGE RELATED MEDICAL CONDITIONS” (Leibniz-Institut für Alternsforschung - …, priority 2019, published 2023).

What was measured:
[1] = system: HSCs (CD150+CD34−Flt3−LSK); assay: Culture of freshly isolated HSCs with metabolic inhibitors, total cell numbers by FACS after 5 days; type: cell-based, mice; details: for cell numbers 5 days after initiation of the treatment, HSCs from old mice compared to HSCs from young mice: 2-DG 3 mM, Oligomycin 1.8 nM, 1,500 HSCs per well, FIG. 6C; for cell numbers 5 days after induction of the inhibitor treatment, HSCs from young mice / sensitivity to respond with a reduction in cell growth, HSCs from old mice: inhibitor of mitochondrial nutrient uptake 9 μM, FIG. 6D; for sensitivity to respond with a reduction in cell growth, HSCs from old mice: compared to young
Experimental: (C-E) One-thousand-five-hundred, freshly isolated HSCs (CD150^+CD34^−Flt3^−LSK) from young or old mice were cultured per well (96-well plate). (C) HSCs were exposed to 2-DG (3 mM), Oligomycin (=Oligo, 1.8 nM), or DMSO as control (=Con). Total cell numbers per well were determined by FACS after 5 days. Young mice (4 months, n=4) and old mice (24 months, n=6). Data are normally distributed (Shapiro-Wilk test). P-values were calculated by t-test with Welch's correction. Error bars depict SD. (D) HSCs were cultured with inhibitors that block the mitochondrial uptake of […] (BPTES, 9 μM), fatty acids (Etomoxir, 9 μM), or pyruvate (UK5099, 9 μM). Total cell numbers were counted by FACS after 5 days. Young mice (3-4 months, n=5) and old mice (26 months, n=4). Data are normally distributed (Shapiro-Wilk test). P-values were calculated by unpaired t-test with Welch's correction. (E) HSCs were exposed to a combination of 3 inhibitors (3 inhibitors=3I, same as in D) at a concentration of 6 μM (each) or to DMSO (Con). Young mice (2-3 months, n=5) and old mice (30-31 months, n=5). Data are normally distributed (Shapiro-Wilk test). P-values were calculated using 2-way ANOVA with Tukey's multiple comparisons test. Error bars depict SD.
To test the functional relevance of these aging-associated changes in the proteome of HSCs, freshly isolated HSCs were exposed to treatment with oligomycin (an inhibitor of mitochondrial oxidative phosphorylation) or to treatment with 2-Deoxy-D-glucose (2-DG) in culture. […] Similar results were obtained after inhibition of nutrient influx into mitochondria. In this experiment, freshly isolated HSCs were incubated with compounds that inhibit the influx of nutrients into mitochondria (BPTES for glutamine, Etomoxir for fatty acids, or UK5099 for pyruvate).
For testing the response of HSPCs to the blocking of glycolysis or mitochondrial ATP synthesis, 2-DG (Sigma, D8375) or oligomycin A (Sigma, 75351) were used. For the inhibition of nutrient uptake into mitochondria, three inhibitors (3I) were used. BPTES (Sigma, SML0601) blocks […] uptake, Etomoxir (Sigma E1905) blocks Fatty acids uptake, and UK5099 (Sigma PZ0160) blocks pyruvate uptake. The final concentration of each inhibitor in the culture medium is 6 μM. Same amount of DMSO was used in the medium as control. For determination of cell number after NR treatment 500 HSCs from young (2-3 months) and old (22-24 months) were pre-incubated either with 1 mM NR (provided by Prof. Johan Auwerx Lab) or DMSO as control for 2 days followed by 2 days treatment with the inhibitors (BPTES, Etomoxir and UK5099, 6 μM each) or same amount of DMSO as control. The cells were then analyzed by BD LSR fortessa.

[2] = system: HSCs (CD150+CD34−Flt3−LSK); assay: Culture of HSCs from FCCP- or vehicle-treated mice with 3I-treatment, total cell numbers; type: cell-based; details: HSCs from high-dose FCCP-treated young mice; FIG. 6G
Experimental: (F,G) Young, 3-4 month old mice were treated within one week with two intraperitoneal injections of FCCP on day-1 and day-4 (high-dose: 4.8 mg/Kg or low-dose: 1.2 mg/Kg) or with vehicle control (10% DMSO) (n=4 mice per group). One week after the start of the treatment (day-7), total bone marrow cells were analyzed and used for culture experiments. […] (G) 2,500 freshly isolated HSCs from vehicle-treated of high-dose FCCP-treated animals were cultured and exposed to 3I-treatment (same concentration as in FIG. 6E) or to vehicle-treatment (Con). The histogram depicts the total cell numbers at 4 days after culture initiation. (F,G) Data are normally distributed (Shapiro-Wilk test) and p-values were calculated using one-way ANOVA (F) and two-way ANOVA (G) with Tukey's multiple comparisons test. Error bars depict SD.
(§2) To experimentally test whether mitochondrial dysfunction would cause an abrogation of adaptive responses of HSCs to reduction in nutrient availability, young mice were exposed the mitochondrial uncoupler FCCP or vehicle (two injections: day-1 and day-4). One week after the first injection, the mice were analyzed and freshly isolated HSCs of FCCP-treated vs. DMSO-treated mice were exposed in culture to the 3 above described inhibitors of mitochondrial nutrient uptake—a combination of BPTES, Etomoxir, and UK5099, referred to from here on as “3I”.

CMPs = details: FIG. 8H
Experimental: (H) Young, 3-4-month old mice were treated one week with two intraperitoneal injections of FCCP/week (high-dose: 4.8 mg/Kg or low-dose: 1.2 mg/Kg) or with vehicle control (10% DMSO) (n=4 mice per group). One week after the start of the treatment, CMPs were freshly isolated and exposed for 12h in culture to a combination of 3 inhibitors of mitochondrial nutrient uptake (31: 6 μM of each BPTES, Etomoxir, and UK5099) or DMSO control (Con). Statistical analysis: The data were normally distributed (Shapiro-Wilk) and p-values were calculated by 2-way ANOVA with Tukey's multiple comparisons test. Error bars depict SD.
To experimentally test this conclusion, CMPs from FCCP-treated vs. control treated young mice (see above) were exposed for 12 hours to 3I-treatment in culture and adaptive response in OCR were measured by Seahorse.
Young C57BL/6 wild type mice (3 months) male mice were weighed before the injection. The mice were then injected intraperitoneally with low dose (1.2 mg/Kg), high dose (4.82 mg/Kg) of FCCP, or 10% DMSO as control (all drugs were dissolved in 10% DMSO. The drug concentration was adjusted so that the final volume of injection of each injection is 150 pL/mouse. The mice were injected at day 1 and day 4 after weighing. Then they were analyzed at day 6. […]

[3] = system: HSCs (CD150+CD34−Flt3−LSK); details: young mice, two i.p. injections (day-1, day-4), 1.2 or 4.8 mg/Kg, 1 week; FIG. 6F
Experimental: (F,G) Young, 3-4 month old mice were treated within one week with two intraperitoneal injections of FCCP on day-1 and day-4 (high-dose: 4.8 mg/Kg or low-dose: 1.2 mg/Kg) or with vehicle control (10% DMSO) (n=4 mice per group). One week after the start of the treatment (day-7), total bone marrow cells were analyzed and used for culture experiments. […] (F,G) Data are normally distributed (Shapiro-Wilk test) and p-values were calculated using one-way ANOVA (F) and two-way ANOVA (G) with Tukey's multiple comparisons test. Error bars depict SD.
as §2
Young C57BL/6 wild type mice (3 months) male mice were weighed before the injection. […]

[4] = system: LDH and PDH activity in HSCs; assay: Activity of LDH and PDH in cultured HSCs after oligomycin-treatment; type: cell-based, mice; details: oligomycin 2.4 nM, 20 hours
Experimental: (C,D) Freshly isolated HSCs (CD150^+CD34^−Flt3^−LSK) from young mice (3-4 months, n=7) and old mice (24-25 months, n=7) were cultured overnight (7,000 HSCs per well of a 96-well plate). Eighteen hours later, HSCs were exposed to oligomycin-treatment (2.4 nM) or vehicle control (0.04% DMSO). After 20h treatment, 1,000 cells from the cultures were isolated by FACS to analyze the activity of (C) LDH and (D) PDH. The histograms depict the data scaled to the average of young, control-treated HSCs set to 1. Data are normally distributed (Shapiro-Wilk test). P-values were calculated by two-way ANOVA with Tukey's multiple comparison tests. Error bars depict SD.
(§1) To further test this hypothesis, we analyzed the adaptability of mitochondrial metabolic pathways in freshly isolated HSPCs from young and old mice. First, we exposed freshly isolated HSCs to Oligomycin or to control treatment and we analyzed the RNA expression of Lactate dehydrogenase A (Ldha) and Pyruvate dehydrogenase A (Pdha) 3 hours after isolation and drug treatment. […] Second, we measured the activity of LDH and PDH in freshly isolated HSCs that were exposed for 20 hours to Oligomycin. […] Again HSCs from old mice were irresponsive (FIG. 8C,D). […] Third, we analyzed OCR in freshly isolated CMPs that were treated for 12 hours with inhibitors of mitochondrial nutrient flow (3I) compared to control treatment. As outlined above, CMPs were used for these respirometry experiments, which need higher cell numbers and thus cannot be conducted on HSCs. […] This increase in OCR in young compared to old CMPs was different from freshly isolated MPs (FIG. 3D) likely due to culture induced activation of OCR in young CMPs, which was impaired in old CMPs by pre-existing, chronic mitochondrial dysfunction.

[5] = system: Ldha, Pdha, Nrf1 and Hif1a mRNA in HSCs; assay: qPCR of Ldha, Pdha, Nrf1, Hif1a in HSCs after oligomycin-treatment; type: cell-based, mice; details: oligomycin 0.6 μM, 3 hours
Experimental: FIG. 8. (A,B) Freshly isolated HSCs (CD150^+CD34^−Flt3^−LSK) from young mice (2-3 months, n=4) and old mice (27-30 months, n=6) were exposed to oligomycin-treatment (0.6 μM) or vehicle control (0.1% DMSO) for 3 hours in culture (7000 HSCs per well of a 96-well plate). Gene expressions (relative to β-actin) of (A) Ldha, (B) Pdha were analyzed by qPCR. […] P-values were calculated on transformed data by unpaired t-test with Welch's correction. Error bars depict SD.
(E,F) The same HSC cultures that were described in FIG. 8A were used to determine the mRNA expression levels of (E) Nrf1 and (F) Hif1a relative to β-actin by qPCR. N=4 for young groups, n=6 for old groups. One outlier (Grubbs test) was removed for the control groups). […] Error bars depict SD.
as §1

## O=CC[C@@H](O)[C@H](O)[C@H](O)CO [2-DG, 2-Deoxy-D-glucose]
[1]
  cell numbers 5 days after initiation of the treatment, HSCs from old mice compared to HSCs from young mice: stronger reduction in cell numbers

## O=C(Cc1ccccc1)Nc1nnc(CCSCCc2nnc(NC(=O)Cc3ccccc3)s2)s1 [BPTES]
[1]
  cell numbers 5 days after induction of the inhibitor treatment, HSCs from young mice: strong reduction in cell numbers
  sensitivity to respond with a reduction in cell growth, HSCs from old mice: significantly reduced

## CCOC(=O)[C@@]1(CCCCCCOc2ccc(Cl)cc2)CO1 [Etomoxir]
[1]
  cell numbers 5 days after induction of the inhibitor treatment, HSCs from young mice: strong reduction in cell numbers
  sensitivity to respond with a reduction in cell growth, HSCs from old mice: significantly reduced

## N#CC(C#N)=NNc1ccc(OC(F)(F)F)cc1 [FCCP]
[2]
  response of HSCs to 3I-treatment by reduction in cell expansion: complete abrogation in responding to 3I-treatment
CMPs; CMPs from FCCP-treated young mice, 3I 6 μM each, 12 h
  responsiveness of CMPs to reduce OCRs in response to 3I-treatment in culture: dose dependent loss in the responsiveness
CMPs; in vivo pre-treatment of young mice with FCCP 1.2 or 4.8 mg/Kg
  OCR of freshly isolated CMPs: dose dependent reduction in the OCR
[3]
  number of phenotypic HSCs in bone marrow: dose dependent increase in the number of phenotypic HSCs in bone marrow

## N#C/C(=C\c1cn(-c2ccccc2)c2ccccc12)C(=O)O [UK5099]
[1]
  cell numbers 5 days after induction of the inhibitor treatment, HSCs from young mice: strong reduction in cell numbers
  sensitivity to respond with a reduction in cell growth, HSCs from old mice: significantly reduced

## CC[C@H]1/C=C/C=C/C[C@@H](C)[C@H](O)[C@@](C)(O)C(=O)[C@@H](C)[C@H](O)[C@@H](C)C(=O)[C@@H](C)[C@H](O)[C@@H](C)/C=C/C(=O)O[C@@H]2[C@H](C)[C@H](CC1)O[C@]1(CC[C@H](C)[C@H](C[C@@H](C)O)O1)[C@H]2C [oligomycin, oligomycin A]
[4]; HSCs from old mice, FIG. 8C,D
  LDH and PDH activity: irresponsive
[4]; HSCs from young mice, FIG. 8C
  LDH activity: reduction in LDH activity
[4]; HSCs from young mice, FIG. 8D
  PDH activity: PDH activity was maintained
[5]; HSCs from old mice, FIG. 8A,B
  Ldha and Pdha RNA expression: irresponsive
[5]; HSCs from young mice, FIG. 8A
  Ldha RNA expression: significant suppression of Ldha expression
[5]; HSCs from young mice, FIG. 8B
  Pdha RNA expression: concomitant increase in Pdha expression
[1]
  cell numbers 5 days after initiation of the treatment, HSCs from old mice compared to HSCs from young mice: less responsive to reduce cell growth
